According to PubChem BioAssay (NCI):
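Five concentrations, 48 hours, 96-well plates. At the GI50, growth is halved. Definition used: TGI = concentration required for complete inhibition of growth.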

Legend:
Test in all cases: growth of human tumour cells (NCI), 48 h
CAKI-1 renal = system: CAKI-1 renal
HOP-92 NSCLC = system: HOP-92 NSCLC
KM12 colon = system: KM12 colon
LOX IMVI melanoma = system: LOX IMVI melanoma
MDA-MB-231 breast = system: MDA-MB-231 breast
NCI-H226 lung = system: NCI-H226 lung
OVCAR-4 ovarian = system: OVCAR-4 ovarian
SF-268 CNS = system: SF-268 CNS
SF-295 CNS = system: SF-295 CNS
SN12C renal = system: SN12C renal

Structure (SMILES) | GI50 (CAKI-1 renal) [µM] | TGI (CAKI-1 renal) [µM] | GI50 (HOP-92 NSCLC) [µM] | TGI (HOP-92 NSCLC) [µM] | GI50 (KM12 colon) [µM] | TGI (KM12 colon) [µM] | GI50 (LOX IMVI melanoma) [µM] | TGI (LOX IMVI melanoma) [µM] | GI50 (MDA-MB-231 breast) [µM] | TGI (MDA-MB-231 breast) [µM] | GI50 (NCI-H226 lung) [µM] | TGI (NCI-H226 lung) [µM] | GI50 (OVCAR-4 ovarian) [µM] | TGI (OVCAR-4 ovarian) [µM] | GI50 (SF-268 CNS) [µM] | TGI (SF-268 CNS) [µM] | GI50 (SF-295 CNS) [µM] | TGI (SF-295 CNS) [µM] | GI50 (SN12C renal) [µM] | TGI (SN12C renal) [µM]
S=C(Nc1ccccc1)N1CCn2c1nsc2=Nc1ccccc1 | > 100 | > 100 | 92.7 | > 100 | > 100 | > 100 | 29.1 | > 100 | 34.8 | > 100 | 61.6 | > 100 | > 100 | > 100 | > 100 | > 100 | 40.4 | > 100 | > 100 | > 100
COc1cccc2ccc3c(c12)C(=O)OC31CCc2c(C)cccc21 (stereo not given) | – | > 46.4 | – | 87.9 | – | > 100 | – | > 46.4 | – | > 100 | – | > 31.6 | – | > 46.4 | – | > 46.4 | – | > 46.4 | – | > 46.4
C=C1C[C@@H]2[C@H](CC[C@]3(C)C(=O)CC[C@@H]23)[C@@]2(C)C=CC(=O)C=C12 | > 55.9 | > 100 | > 100 | > 100 | 30.7 | > 70 | 19.2 | 45.5 | 35 | > 100 | 20.2 | > 60 | 42.7 | > 100 | 57.1 | > 100 | 28.5 | 74.5 | 21 | > 63.5
N#Cc1ccc2c(c1)C(=O)c1c-2n(CCCN=[N+]=[N-])c(=O)c2cc([N+](=O)[O-])ccc12 | 9.86 | > 50 | 5.55 | 40.1 | > 50 | > 50 | 4.85 | > 50 | > 50 | > 50 | 40 | > 50 | > 50 | > 50 | 5.03 | > 50 | 8 | > 50 | 47.2 | > 50
Cc1nn2c(/C=C3\C(=O)Nc4ccccc43)c(C)nc2s1 | > 100 | > 100 | 61 | > 100 | 6.4 | > 100 | 97.1 | > 100 | > 100 | > 100 | > 100 | > 100 | > 100 | > 100 | 54.6 | > 100 | 29.1 | > 100 | > 100 | > 100
O=S1(=O)CC(Br)C(Br)C1 (stereo not given) | 3.12 | 11.8 | 2.35 | 7.43 | 13.4 | 32.4 | 0.628 | 10 | 3.15 | 10.3 | 1.49 | 11.2 | 3.11 | 18.4 | 21.5 | > 100 | 24.5 | > 100 | 4.07 | 17.4
CS(=O)(=O)Nc1cc(-c2ccc3ncnc(Nc4cccc(Cl)c4F)c3c2)cnc1Cl | 1.82 | 12.6 | 0.672 | 5.31 | 4.32 | 16.5 | 1.58 | 5.45 | 2.1 | 8.06 | 2.57 | 18.2 | 5.82 | > 100 | 1.41 | 19.3 | 2.47 | 12.5 | 3.89 | 41.2
CN(C)CCNc1c2c(c(NCCN(C)C)c3c(CO)c[nH]c13)C(=O)c1ccccc1C2=O | 4.64 | 19.2 | 2.89 | 13.1 | 1.03 | 5.73 | 1.97 | 10 | 2.29 | 10.7 | 7.37 | 26.3 | 2.58 | 11.5 | 4.27 | 22.1 | 3.39 | 17.8 | 1.25 | 8.33
Cc1ccc(S(=O)(=O)c2ccsc2N)cc1 | > 100 | > 100 | 73.9 | > 100 | > 100 | > 100 | > 100 | > 100 | > 100 | > 100 | 45.9 | > 100 | 58.3 | > 100 | 97.7 | > 100 | > 100 | > 100 | > 100 | > 100
S=c1[nH]nc(SCc2ccccc2Cl)c2[nH]cnc12 | – | > 100 | – | > 100 | – | > 100 | – | > 100 | – | > 100 | – | > 100 | – | > 100 | – | > 100 | – | > 100 | – | > 100
C(#Cc1ccccc1C#Cc1ccccn1)c1ccccn1 | 18.3 | 42.5 | 1.96 | 12.2 | 11 | 22.9 | 15.4 | 30.9 | 16.6 | 36.6 | 16.6 | 37.9 | 38 | > 100 | 17.7 | 35.7 | 16.8 | 33.3 | 18.1 | 35.1
